Test results published in patent publication US20250268903A1, “RXFP1 AGONISTS” (BRISTOL-MYERS SQUIBB COMPANY, priority 2021, published 2025).

What follows are molecules tested against T1, human RXFP1 (Homo sapiens, UniProt Q9HBX9) (assay: hRXFP1 HEK293 cAMP assay (HTRF)). Settings: HEK293 cells stably expressing human RXFP1, 30 min at room temperature.
T1 construct: expressed in transfected cells
T1 sequence (Q9HBX9 1-757): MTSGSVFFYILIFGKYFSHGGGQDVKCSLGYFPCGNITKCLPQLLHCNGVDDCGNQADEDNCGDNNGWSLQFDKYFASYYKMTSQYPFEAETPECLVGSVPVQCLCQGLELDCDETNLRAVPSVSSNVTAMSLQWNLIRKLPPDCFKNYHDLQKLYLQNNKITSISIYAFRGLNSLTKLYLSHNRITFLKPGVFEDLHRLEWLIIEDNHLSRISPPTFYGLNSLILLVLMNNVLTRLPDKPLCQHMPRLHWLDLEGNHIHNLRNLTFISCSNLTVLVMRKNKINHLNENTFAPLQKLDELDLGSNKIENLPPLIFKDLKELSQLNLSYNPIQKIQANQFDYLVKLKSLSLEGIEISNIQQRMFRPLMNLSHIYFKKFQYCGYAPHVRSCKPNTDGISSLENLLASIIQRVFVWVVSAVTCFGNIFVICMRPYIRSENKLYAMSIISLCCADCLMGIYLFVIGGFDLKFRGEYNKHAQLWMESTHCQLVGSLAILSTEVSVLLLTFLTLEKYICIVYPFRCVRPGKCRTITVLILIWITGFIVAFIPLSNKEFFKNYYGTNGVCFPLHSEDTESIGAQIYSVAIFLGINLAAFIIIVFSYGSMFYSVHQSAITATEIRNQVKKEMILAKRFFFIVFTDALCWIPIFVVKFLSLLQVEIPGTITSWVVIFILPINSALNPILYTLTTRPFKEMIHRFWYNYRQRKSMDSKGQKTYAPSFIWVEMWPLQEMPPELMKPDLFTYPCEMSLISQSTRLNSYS
Assay type: cell-based
Outline: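 HEK293 cells stably expressing human RXFP1 were suspended in HBSS (Ca/Mg) with 20 mM HEPES, 0.05% BSA and 0.5 mM IBMX, then treated with compounds (0.010 nM–50 μM, 2% DMSO final) for 30 min at room temperature. Intracellular cAMP was measured by HTRF, and potency was derived from 4-parameter logistic fits.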

| SMILES | EC50 [nM] |
| --- | --- |
| COc1ccc(S(=O)(=O)N2CCOC[C@@H]2CO)cc1C(=O)N[C@H]1[C@@H](C(=O)Nc2ccc(F)c(C(F)(F)F)c2)[C@H]2CC[C@@H]1/C2=C\C(F)(F)F [Example 213, (1R,2S,3R,4R,7Z)-N-[4-fluoro-3-(trifluoromethyl)phenyl]-3-(5-{[(3S)-3-(hydroxymethyl)morpholin-4-yl]sulfonyl}-2-methoxybenzamido)-7-(2,2,2-trifluoroethylidene) bicyclo[2.2.1] heptane-2-carboxamide] | 331 |
| COc1ccc(S(=O)(=O)N2CC3CCC(C2)O3)cc1C(=O)N[C@H]1[C@@H](C(=O)Nc2ccc(F)c(C(F)(F)F)c2)[C@H]2CC[C@@H]1/C2=C\C(F)(F)F [Example 214, (1R,2S,3R,4R,7Z)-N-[4-fluoro-3-(trifluoromethyl)phenyl]-3-(2-methoxy-5-{8-oxa-3-azabicyclo[3.2.1]octane-3-sulfonyl}benzamido)-7-(2,2,2-trifluoroethylidene) bicyclo[2.2.1] heptane-2-carboxamide] | 272 |
| COc1ccc(S(=O)(=O)N2CCN(C(=O)OC(C)(C)C)CC2CCO)cc1C(=O)N[C@H]1[C@@H](C(=O)Nc2ccc(F)c(C(F)(F)F)c2)[C@H]2CC[C@@H]1/C2=C\C(F)(F)F (stereo partly drawn) [Example 215, tert-butyl 4-(3-{[(1R,2R,3S,4R,7Z)-3-{[4-fluoro-3-(trifluoromethyl)phenyl]carbamoyl}-7-(2.2,2-trifluoroethylidene)bicyclo[2.2.1]heptan-2-yl]carbamoyl}-4-methoxy-benzenesulfonyl)-3-(2-hydroxyethyl) piperazine-1-carboxylate] | 761 |
| COc1ccc(S(=O)(=O)N2CCN(C)CC2CO)cc1C(=O)N[C@H]1[C@@H](C(=O)Nc2ccc(F)c(C(F)(F)F)c2)[C@H]2CC[C@@H]1/C2=C\C(F)(F)F (stereo partly drawn) [Example 218] | 714 |
| COc1ccc(S(=O)(=O)N2CCC(CCO)CC2)cc1C(=O)N[C@H]1[C@@H](C(=O)Nc2ccc(F)c(C(F)(F)F)c2)[C@H]2CC[C@@H]1/C2=C\C(F)(F)F [Example 219, (1R,2S,3R,4R,7Z)-N-[4-fluoro-3-(trifluoromethyl)phenyl]-3-(5-{[4-(2-hydroxyethyl)piperidin-1-yl]sulfonyl}-2-methoxybenzamido)-7-(2,2,2-trifluoroethylidene) bicyclo[2.2.1]heptane-2-carboxamide] | 317 |
| COc1ccc(S(=O)(=O)N2CCN3C(=O)OCC3C2)cc1C(=O)N[C@H]1[C@@H](C(=O)Nc2ccc(F)c(C(F)(F)F)c2)[C@H]2CC[C@@H]1/C2=C\C(F)(F)F (stereo partly drawn) [Example 220, (1R,2S,3R,4R,7Z)-N-[4-fluoro-3-(trifluoromethyl)phenyl]-3-[2-methoxy-5-({3-oxo-hexahydro-1H-[1,3]oxazolo[3,4-a]piperazin-7-yl}sulfonyl)benzamido]-7-(2,2,2-trifluoroethylidene) bicyclo[2.2.1] heptane-2-carboxamide] | 459 |
| COc1ccc(S(=O)(=O)N2CC3CCC(C2)O3)cc1C(=O)N[C@H]1[C@@H](C(=O)Nc2ccc(F)c(C(F)(F)F)c2)[C@H]2CC[C@@H]1/C2=C\C1CC1 [Example 221, (1R,2S,3R,4R,7Z)-7-(cyclopropylmethyl-idene)-N-[4-fluoro-3-(trifluoromethyl)phenyl]-3-(2-methoxy-5-{8-oxa-3-azabicyclo[3.2.1]octane-3-sulfonyl}benzamido) bicyclo[2.2.1]heptane-2-carboxamide] | 44.9 |
| COc1ccc(S(=O)(=O)N2CCOC[C@H]2CO)cc1C(=O)N[C@H]1[C@@H](C(=O)Nc2ccc(F)c(C(F)(F)F)c2)[C@H]2CC[C@@H]1/C2=C\C1CC1 [Example 224, (1R,2S,3R,4R,7Z)-7-(cyclopropylmethyl-idene)-N-[4-fluoro-3-(trifluoromethyl)phenyl]-3-(5-{[(3R)-3-(hydroxymethyl)morpholin-4-yl]sulfonyl}-2-methoxybenzamido) bicyclo[2.2.1] heptane-2-carboxamide] | 80.3 |
| COc1ccc(S(=O)(=O)N2CCN(C(=O)OC(C)(C)C)[C@H](CO)C2)cc1C(=O)N[C@H]1[C@@H](C(=O)Nc2ccc(F)c(C(F)(F)F)c2)[C@H]2CC[C@@H]1/C2=C\C(F)(F)F [Example 225, tert-butyl (2S)-4-(3-{[(1R,2R,3S,4R,7Z)-3-{[4-fluoro-3-(trifluoromethyl)phenyl]carbamoyl}-7-(2,2,2-trifluoroethylidene)bicyclo[2.2.1]heptan-2-yl]carbamoyl}-4-methoxy-benzenesulfonyl-2-(hydroxymethyl)piperazine-1-carboxylate] | 4270 |
| COc1ccc(S(=O)(=O)N2CCN(C(=O)OC(C)(C)C)[C@@H](CO)C2)cc1C(=O)N[C@H]1[C@@H](C(=O)Nc2ccc(F)c(C(F)(F)F)c2)[C@H]2CC[C@@H]1/C2=C\C(F)(F)F [Example 226, tert-butyl (2R)-4-(3-{[(1R,2R,3S,4R,7Z)-3-{[4-fluoro-3-(trifluoromethyl)phenyl]carbamoyl}-7-(2,2,2-trifluoroethylidene)bicyclo[2.2.1]heptan-2-yl]carbamoyl}-4-methoxy-benzenesulfonyl)-2-(hydroxymethyl) piperazine-1-carboxylate] | 1730 |
| COc1ccc(C(=O)NCCCO)cc1C(=O)N[C@H]1[C@@H](C(=O)Nc2ccc(F)c(C(F)(F)F)c2)[C@H]2CC[C@@H]1/C2=C\C1CC1 [Example 229, N3-[(1R,2R,3S,4R,7Z)-7-(cyclopropyl-methylidene)-3-{[4-fluoro-3-(trifluoromethyl)phenyl]carbamoyl}bicyclo[2.2.1]heptan-2-yl]-N1-(3-hydroxypropyl)-4-methoxybenzene-1,3-dicarboxamide] | 183 |
| COc1ccc(C(=O)N2CCC(O)CC2)cc1C(=O)N[C@H]1[C@@H](C(=O)Nc2ccc(F)c(C(F)(F)F)c2)[C@H]2CC[C@@H]1/C2=C\C1CC1 [Example 230, (1R,2S,3R,4R,7Z)-7-(cyclopropyl-methylidene)-N-[4-fluoro-3-(trifluoromethyl)phenyl]-3-[5-(4-hydroxypiperidine-1-carbonyl)-2-methoxybenzamido] bicyclo[2.2.1] heptane-2-carboxamide] | 26 |

The remaining lines, values ahead:

| EC50 [nM] | SMILES |
| --- | --- |
| 281 | COc1ccc(S(=O)(=O)N2CCNCC2CCO)cc1C(=O)N[C@H]1[C@@H](C(=O)Nc2ccc(F)c(C(F)(F)F)c2)[C@H]2CC[C@@H]1/C2=C\C(F)(F)F (stereo partly drawn) [Example 216, (1R,2S,3R,4R,7Z)-N-[4-fluoro-3-(trifluoromethyl)phenyl]-3-(5-{[2-(2-hydroxyethyl)piperazin-1-yl]sulfonyl}-2-methoxybenzamido)-7-(2,2,2-trifluoroethylidene) bicyclo[2.2.1]heptane-2-carboxamide] |
| 221 | COc1ccc(S(=O)(=O)N(CCO)CCO)cc1C(=O)N[C@H]1[C@@H](C(=O)Nc2ccc(F)c(C(F)(F)F)c2)[C@H]2CC[C@@H]1/C2=C\C(F)(F)F [Example 217, (1R,2S,3R,4R,7Z)-3-{5-[bis(2-hydroxyethyl)sulfamoyl]-2-methoxybenzamido}-N-[4-fluoro-3-(trifluoromethyl)phenyl]-7-(2,2,2-trifluoroethylidene) bicyclo[2.2.1] heptane-2-carboxamide] |
| 84.9 | COc1ccc(S(=O)(=O)N2CCS(=O)(=O)CC2)cc1C(=O)N[C@H]1[C@@H](C(=O)Nc2ccc(F)c(C(F)(F)F)c2)[C@H]2CC[C@@H]1/C2=C\C1CC1 [Example 222, (1R,2S,3R,4R,7Z)-7-(cyclopropylmethylidene)-3-{5-[(1,1-dioxo-1λ^6-thiomorpholin-4-yl)sulfonyl]-2-methoxybenzamido}-N-[4-fluoro-3-(trifluoromethyl)phenyl]bicyclo[2.2.1] heptane-2-carboxamide] |
| 145 | COc1ccc(S(=O)(=O)N2CCN3C(=O)CCC3C2)cc1C(=O)N[C@H]1[C@@H](C(=O)Nc2ccc(F)c(C(F)(F)F)c2)[C@H]2CC[C@@H]1/C2=C\C1CC1 (stereo partly drawn) [Example 223, (1R,2S,3R,4R,7Z)-7-(cyclopropyl-methylidene)-N-[4-fluoro-3-(trifluoromethyl)phenyl]-3-[2-methoxy-5-({6-oxo-octahydropyrrolo[1,2-a]piperazin-2-yl}sulfonyl)benzamido] bicyclo[2.2.1] heptane-2-carboxamide] |
| 77.2 | COc1ccc(C(=O)OC(C)(C)C)cc1C(=O)N[C@H]1[C@@H](C(=O)Nc2ccc(F)c(C(F)(F)F)c2)[C@H]2CC[C@@H]1/C2=C\C1CC1 [Example 227] |
| 32 | COc1ccc(C(=O)N2CCO[C@@H](CO)C2)cc1C(=O)N[C@H]1[C@@H](C(=O)Nc2ccc(F)c(C(F)(F)F)c2)[C@H]2CC[C@@H]1/C2=C\C1CC1 [Example 231, (1R,2S,3R,4R,7Z)-7-(cyclopropylmethyl-idene)-N-[4-fluoro-3-(trifluoromethyl)phenyl]-3-{5-[(2R)-2-(hydroxymethyl)morpholine-4-carbonyl]-2-methoxybenzamido} bicyclo[2.2.1] heptane-2-carboxamide] |
